Entries after “also recorded” stand apart in the source; their conditions may differ.
What was measured:
Cy/+ (CKD) rat = settings: Cy/+ CKD rat model; cited from earlier work
CKD rats (Cy/+) [1] = settings: Cy/+ rat model; cited from earlier work
CKD rats (Cy/+) [2] = test: Cy/+ rat model of CKD: bone turnover by histomorphometry after treatment; assay type: in vivo
Description: (§1) The Cy/+ rat model of CKD was used to assess bone expression of miRNAs. Cy/+ rats are characterized by an autosomal dominant progressive cystic kidney disease that is […] with human ADPKD(63). […] The Cy/+IU colony of rats has been bred for nearly 20 years. The model recapitulates CKD-MBD with progressive kidney disease, hyperphosphatemia, secondary hyperparathyroidism, elevated FGF-23, resulting in ROD and vascular calcification. Importantly, the slowly progressive nature of the model allows for examination of interventions that differentially affect bone remodeling. […] In brief, CKD animals (n=8-10 each group) began treatment at 25 weeks for a total of 10 weeks and received 1) no treatment (control CKD=high PTH/high turnover, 2) 3% calcium in the drinking water (CKD/Ca group=low PTH/low turnover), or 3) a single injection of zoledronic acid (CKD/Zol group=high PTH/low turnover). At 35 weeks of age, animals were euthanized and bone tissue were collected. Bone histomorphometry as previously reported (67). RNA was isolated from tibia and bone miRNA expression determined by real time PCR using TaqMan miRNA assay as above.
The Cy/+ rat model of CKD was used to assess bone expression of miRNAs. […] The Cy/+IU colony of rats has been bred at Indiana University for nearly 20 years. […]

[3] = test system: miRNA 30b, 30c, 125b and 155; assay type: in vivo, rat; settings: CKD rats
Description: as §1
The Cy/+ rat model of CKD was used to assess bone expression of miRNAs. […] The Cy/+IU colony of rats has been bred at Indiana University for nearly 20 years. The model recapitulates CKD-MBD with progressive kidney disease, hyperphosphatemia, secondary hyperparathyroidism, elevated FGF-23, resulting in ROD and vascular calcification. Importantly, the slowly progressive nature of the model allows for examination of interventions that differentially affect bone remodeling. Specifically, we have induced low turnover bone remodeling by two methods: with calcium in the drinking water (calcium binders) and zoledronic acid.^41, 42 In brief, CKD animals (n=8 to 10 each group) began treatment at 25 weeks for a total of 10 weeks and received: (i) no treatment (control CKD=high PTH/high turnover; (ii) 3% calcium in the drinking water (CKD/Ca group=low PTH/low turnover); or (iii) a single injection of 20 μg/kg of zoledronic acid (CKD/Zol group=high PTH/low turnover). At 35 weeks of age, animals were euthanized and bone tissue was collected. Bone histomorphometry was performed as previously reported.^43 RNA was isolated from tibia, and bone miRNA expression was determined by real-time PCR using TaqMan miRNA assay as described above. All procedures were reviewed and approved by the Indiana University School of Medicine Institutional Animal Care and Use Committee.

SMILES	suppressing bone turnover (Cy/+ (CKD) rat)	induction of low turnover bone remodeling (CKD rats (Cy/+) [1])	PTH status of the treated group (CKD rats (Cy/+) [2]; same treatment groups, untreated CKD = high PTH)	type of bone turnover induced by the intervention (histomorphometry) (CKD rats (Cy/+) [2]; treatment from 25 weeks of age for 10 weeks, 3% calcium in drinking water or single injection of zoledronic acid, untreated CKD = high turnover)	levels of miRNAs, low turnover induced by dietary calcium compared with zoledronic acid ([3]; bone tissue)	bone-tissue expression of miRNA-30b vs rats with high turnover ([3]; tibia, 35 weeks of age)	bone-tissue expression of miRNA-30c vs rats with high turnover ([3]; tibia, 35 weeks of age)	bone-tissue expression of miRNA-125b vs rats with high turnover ([3]; tibia, 35 weeks of age)	bone-tissue expression of miRNA-155 vs rats with high turnover ([3]; tibia, 35 weeks of age)
C=C1/C(=C\C=C2/CCC[C@]3(C)[C@@H]([C@H](C)CCCC(C)(C)O)CC[C@@H]23)C[C@@H](O)C[C@@H]1O [Calcitriol]	not effective								
[Ca+2] [calcium]		low turnover bone remodeling has been induced	low PTH	low turnover	did not differ	low expression; also recorded: lower	low expression; also recorded: lower	low expression; also recorded: lower	low expression; also recorded: lower

Reference: US20210079476A1, “BIOMARKERS OF RENAL OSTEODYSTROPHY TYPE” (The Trustees of Columbia University in the City of New York, priority 2018, published 2021)
